Legend:
[1] = test system: mouse collagen arthritis model; assay: Mouse collagen arthritis model (arthritogenic antibody cocktail/LPS); assay type: in vivo; settings: for Arthritis score: 3.2 mg/kg orally once daily; for Volume of leg edema / Body weight change / Quantity of feed intake: 3.2 mg/kg
Procedure: For arthritis induction, an arthritogenic antibody cocktail (under the trade name of a cocktail for arthritis, Arthrogen-CIA® mAb, Arthritogenic mAb cocktail; manufactured by Iwai Chemical Pharmaceutical Co., Ltd.) recognizing four epitopes specific to collagen was used. To a mouse was intravenously administered the arthritogenic cocktail; 3 days later, LPS (100 μg) was intraperitoneally administered to thereby elicit arthritis. Arthritis was observed on day 3 after LPS dosing, which reached maximum on day 6.
Immediately before LPS dosing and 3 days later, the M5 antibody was intravenously administered at a dose of 40 μg, 150 μg or 400 μg. As the control group, a rabbit IgG-dosed group (at a dose of 400 μg) was arranged. Additionally, the anti-mouse TNF-α antibody was intravenously administered at a dose of 200 μg/mouse immediately before LPS administration and 3 days later. As the control group, a rat IgG-dosed group (at a dose of 200 μg) was arranged. Further, MTX was orally given (at a dose of 3.2 mg/kg) once daily on the very day of LPS dosing and thereafter. Then, MTX dissolved in 5 ml of 0.5% methyl cellulose solution was used. For the control group, 5 ml of 0.5% methyl cellulose solution was arranged.
Assessment was done per one group of five animals, concerning four items, namely arthritis score, leg edema, body weight change and feed intake.

[2] = test system: human fibroblast TIG-7 adhesion to OPN; assay: Inhibition of TIG-7 cell adhesion to OPN (CHO/OPN-a coated plate); assay type: cell-based; settings: peptide 100 μg/ml; FIG. 1A
Procedure: It was examined by the following method as to whether or not the monoclonal antibodies inhibited cell adhesion to OPN. First, a 96-well plate was precoated with various concentrations of the CHO/OPN-a at 4° C. overnight, which was then treated with 0.5% BSA in PBS under conditions of 37° C. for 10 minutes, so as to block non-specific adhesion. A human fibroblast TIG-7 or SW480 cell transformed with the cDNA of an integrin subunit α9 (referred to as “α9-transformed SW480 cell” hereinafter) was suspended in D-MEM containing 0.25% BSA; 200 μl of the resulting cell suspension (at a cell concentration of 5×10^4 cells/well) was injected in a 96-well plate precoated with the CHO/OPN-a or nOPN, in the presence or absence of various concentrations of the monoclonal antibodies or synthetic peptides, for incubation at 37° C. for one hour.
The culture medium was discarded from the plate, and all the wells were rinsed twice with D-MEM containing 0.25% BSA. The adherent cells were fixed and stained with 0.5% crystal violet in 20% methanol for 30 minutes.
All the wells were rinsed three times with water, and the adherent cells were then solubilized into 20% acetic acid. The resulting supernatant recovered from each well was analyzed with an immunoreader, to measure the absorbance at 590 nm to determine the relative count of the cells adhering to the well. […]

[3] = test system: α9-transformed SW480 cell adhesion to vitronectin; assay: Adhesion of α9-transformed SW480 cell to vitronectin; assay type: cell-based, human; settings: 1 μg/ml vitronectin; 200 μM peptide; FIG. 2A
[4] = test system: murine NIH3T3 cell adhesion to mOPN/de-GST; assay: Inhibition of NIH3T3 cell adhesion to murine OPN (mOPN/de-GST); assay type: cell-based, mouse; settings: peptide 100 μg/ml; FIG. 7
From the text: It was examined by the method described in the reference (S. Kon et al., (2002): J. Cell. Biochem., 84(2), 420-432) as to whether or not the M5 antibody might inhibit cell adhesion to OPN. As the OPN, the full-length murine OPN was used, from which the GST moiety had preliminarily been removed with PreScission protease (Amersham Pharmacia Biotech, Tokyo, Japan) (referred to as “mOPN/de-GST” hereinafter) was used. As the cell, murine NIH3T3 cell was used.

Question: What does the source list for `CN(Cc1cnc2nc(N)nc(N)c2n1)c1ccc(C(=O)N[C@@H](CCC(=O)O)C(=O)O)cc1` [MTX]?
Answer: Overall effect in mouse arthritis model (arthritis score, onset of arthritis, leg edema) [1]: almost no pharmaceutical efficacy; Arthritis score ([1]; day 3): 0.8 ± 0.4; Arthritis score ([1]; day 4): 1.8 ± 0.7; Arthritis score ([1]; day 5): 6.0 ± 0.6; Arthritis score ([1]; day 6): 6.0 ± 0.6; Volume of leg edema ([1]; Foreleg): 0.047 ± 0.003 mL; Volume of leg edema ([1]; Hind leg): 0.132 ± 0.003 mL; Body weight change ([1]; day 0 to day 3 post-dosing): -1.5 g; Quantity of feed intake ([1]; day 0 to day 3 post-dosing): 0.8 g/mouse/day; Body weight change ([1]; day 3 to day 6 post-dosing): -1.8 g; Quantity of feed intake ([1]; day 3 to day 6 post-dosing): 2.1 g/mouse/day

Question: GRGDSP was tested. Which “Inhibition of TIG-7 adhesion to OPN by peptide” value [2] did it give?
Answer: apparently inhibited

Question: And the “Inhibition of adhesion between vitronectin and α9-transformed SW480 cell by peptide” value [3]?
Answer: inhibited

Question: What about the “Inhibition of NIH3T3 adhesion to mOPN/de-GST by peptide” value [4] of the same compound?
Answer: apparently inhibited
